Here are results for 3 molecules from patent publication EP4636093A1, “TARGETING MAPK-ERK PATHWAY FOR ENHANCING NUCLEIC ACID DELIVERY” (priority 2024, dated 2025).

Where two headings read alike, the source gives them in different places. A value given as a limit tells only on which side of the number the result lay.

One test concerns T cells. The format is cell-based, Human. Particulars: for increase in CAR expression: with vs without 400 nM deucravacitinib.
The next test deals with human T lymphocytes. The format is cell-based. Particulars: AAV6 (GFP); 20 µM Vx-11e compared to untreated cells; average, three donors.

`Cc1cnc(Nc2ccc(F)cc2Cl)nc1-c1c[nH]c(C(=O)N[C@H](CO)c2cccc(Cl)c2)c1` [VX-11e]: in the test with T cells, the optimal doses is listed as 20 µM. Moreover, the “VSV-LV mediated transduction efficiency increase” value in the test with T cells (VSV-LV, 20 µM VX-11e, average, three donors) is “up to 1.8 fold”. The “AAV6 mediated transduction efficiency increase” value in the test with human T lymphocytes is recorded as “up to 2.1 fold”.
In the case of Deucravacitinib, the “increase in CAR expression” value is given as “up to 1.7 fold” in the test with T cells (CD4-LV, CD4 T cells, average, three donors) and at most 3.6 fold in the test on T cells (CD8-LV, CD8 T cells, average, three donors). Further, the optimal dose with T cells (treatment of cells for 24 hours, CAR expression after LV transduction (one donor)) came to 400 nM.
Regarding `CC(C)Nc1cc(-c2c[nH]c(C(=O)N[C@H](CO)c3cccc(Cl)c3)c2)c(Cl)cn1` [ulixertinib], in the test with T cells, the optimal doses was 5 µM.
